Read-outs that look alike come from different tables or passages of the source.
How the values were obtained:
HepG2 = experiment: MTS-based cytotoxicity assay; type: cell-based, human
MCF7 = experiment: MTS-based cytotoxicity assay; type: cell-based, human
P. falciparum Dd2 [1] = experiment: SYBR Green I-based proliferation assay, ring stage parasites; details: for fold loss of antiplasmodial potency: relative to compound 1; for further decrease in the potency: on removing the nitrogen from pyridine / thiophenylpyridine
P. falciparum 3D7 = experiment: as above; details: read-out: Antiplasmodial Activity 3D7 EC50, 72 h
human EphA2 = human EphA2 (Homo sapiens, UniProt P29317); experiment: SelectScreen kinase profiling, in vitro FRET-based assay; type: biochemical; details: compared to compound 5
[2] = In vitro metabolic stability in mouse liver microsomes; type: in vitro ADME
[3] = tested on: panel of 468 kinases (403 nonmutant kinases); experiment: KINOMEscan Profiling Service, binding at 1 μM; parameters: species or system human; details: screened at 1 μM
[4] = Kinetic solubility, miniaturized shake-flask method; type: physicochemical; details: Table S1, 1× PBS pH 7.4
Caco-2 cells = experiment: Caco-2 permeability; type: in vitro ADME; details: Table S1, Caco-2
Synchronized Dd2 culture = experiment: Stage specific assay, YOYO-1 flow cytometry and microscopy; type: cell-based, P. falciparum
[5] = tested on: P. falciparum lines AcAS A597 V, CARL I1139K, PI4K S1320L; experiment: Cross resistance evaluation, SYBR Green I assay; type: cell-based; details: PI4K mutant lines
P. falciparum Dd2-B2 = experiment: Minimum inoculum of resistance; type: cell-based; details: 3 × EC10, monitored 50 days
[6] = tested on: P. falciparum strains 3D7, IPC 5188, IPC 5202, IPC 6261; experiment: Ring stage survival assay; details: 10 × EC50 for 6 h, survival at 72 h, all strains
[7] = tested on: P. falciparum strains 3D7, IPC 5188, IPC 5202, IPC 6261; experiment: Piperaquine survival assay; details: 10 × EC50 for 48 h, regardless of strain
[8] = tested on: P. falciparum 3D7 blood-stage parasites; experiment: Parasite reduction ratio; details: 10 × EC50, ring stage
[9] = tested on: asynchronous Dd2 cultures; experiment: Rate of killing assay, flow cytometry-based; details: 10 × EC50 for as little as 12 h, washed, monitored 4 days
[10] = tested on: P. falciparum strains 3D7, IPC 5188, IPC 5202, IPC 6261; experiment: EC50 determination in artemisinin and piperaquine resistant isolates; details: all strains, Figure 4C
P. falciparum Dd2 [11] = experiment: SYBR Green I-based proliferation assay, asynchronous blood stage cultures; details: compared to compound 5, Dd2
[12] = cited from earlier work
ring stage = details: read-out: ring stage EC50; cited from earlier work

Chain of human EphA2 (P29317 24-976): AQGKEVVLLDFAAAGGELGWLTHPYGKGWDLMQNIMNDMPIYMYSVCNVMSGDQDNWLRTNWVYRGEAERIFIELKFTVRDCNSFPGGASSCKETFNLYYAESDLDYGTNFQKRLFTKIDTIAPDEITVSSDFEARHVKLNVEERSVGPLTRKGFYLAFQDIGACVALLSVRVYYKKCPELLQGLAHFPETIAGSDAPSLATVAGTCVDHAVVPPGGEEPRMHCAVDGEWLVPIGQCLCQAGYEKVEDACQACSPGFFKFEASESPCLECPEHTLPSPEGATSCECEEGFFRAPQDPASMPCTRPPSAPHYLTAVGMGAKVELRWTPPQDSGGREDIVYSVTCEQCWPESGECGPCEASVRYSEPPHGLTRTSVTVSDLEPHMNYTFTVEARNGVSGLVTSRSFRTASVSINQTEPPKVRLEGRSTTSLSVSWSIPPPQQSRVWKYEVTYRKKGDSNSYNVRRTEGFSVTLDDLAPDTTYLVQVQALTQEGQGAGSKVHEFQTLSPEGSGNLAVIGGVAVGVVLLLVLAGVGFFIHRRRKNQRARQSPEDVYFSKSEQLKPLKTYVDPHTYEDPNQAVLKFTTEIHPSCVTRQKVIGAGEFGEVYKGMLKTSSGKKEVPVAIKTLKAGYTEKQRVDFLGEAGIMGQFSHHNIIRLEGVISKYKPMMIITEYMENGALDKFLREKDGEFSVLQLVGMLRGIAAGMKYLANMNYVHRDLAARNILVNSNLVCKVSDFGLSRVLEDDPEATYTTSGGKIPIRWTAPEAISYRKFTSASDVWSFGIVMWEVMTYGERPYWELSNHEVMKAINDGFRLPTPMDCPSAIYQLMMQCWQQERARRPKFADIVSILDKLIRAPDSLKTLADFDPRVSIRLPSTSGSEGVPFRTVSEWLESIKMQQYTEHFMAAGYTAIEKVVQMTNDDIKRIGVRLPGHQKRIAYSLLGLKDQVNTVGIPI

## 3-Amino-N-(4-((4-ethylpiperazin-1-yl)methyl)-3-(trifluoromethyl)phenyl)-5-methylbenzamide [Compound 28]
HepG2
  EC50: 3200 ± 238 nM
HepG2; HepG2 EC50/P. falciparum Dd2 EC50
  Selectivity Index (SI) HepG2: 8.6
MCF7
  EC50: 5220 ± 517 nM
MCF7; MCF7 EC50/P. falciparum Dd2 EC50
  Selectivity Index (SI) MCF7: 14
P. falciparum Dd2 [1]; P. falciparum Dd2 EC50/P. falciparum 3D7 EC50
  Resistance Index (RI): 1.6
P. falciparum Dd2 [1]; read-out: Antiplasmodial Activity Dd2 EC50, ring stage parasites, 72 h
  EC50: 372 ± 37 nM
P. falciparum Dd2 [1]
  fold loss of antiplasmodial potency: 6 fold
P. falciparum 3D7
  EC50: 235 ± 34 nM

## CCN1CCN(Cc2ccc(NC(=O)c3cc(Cl)cc(NC(=O)c4cncc(-c5cccs5)c4)c3)cc2C(F)(F)F)CC1 [Compound 1, N-(3-Chloro-5-((4-((4-ethylpiperazin-1-yl)methyl)-3-(trifluoromethyl)phenyl)carbamoyl)phenyl)-5-(thiophen-2-yl)nicotinamide]
Human EphA2
  fold reduction in human EphA2 activity: ~900 fold
[2]
  microsomal stability and clearance: suitable microsomal stability and low clearance
[3]
  S (10) selectivity score: 0.035
[4]
  solubility: poor
Caco-2 cells
  cell permeability: poor
Synchronized Dd2 culture; 5 × EC50 added at 6 HPI
  stage specific effect: parasites seemed to remain stunted in the ring stage
Synchronized Dd2 culture; 5 × EC50 added at 42 HPI
  stage specific effect: the effect was much less pronounced
Synchronized Dd2 culture; 5 × EC50 applied at both 18 and 30 HPI
  stage specific effect: there was a delayed shift, and parasites were clearly malformed
[5]
  cross-resistance, EC50 among resistant lines: no difference
P. falciparum Dd2-B2
  parasite recovery under continuous treatment: failed to recover within 50 days
[6]
  ring stage survival: notably higher than that of the DHA-treated cultures
[7]
  survival in piperaquine survival assay: did not survive the 48 h treatment
[8]
  99.9% parasite clearance time (PCT): less than 32 h
  lag phase: no lag phase detected
[9]
  parasite recovery after treatment: failed to recover within 4 days
[10]
  EC50 values: low nanomolar range
P. falciparum Dd2 [11]
  fold increase in antiplasmodial activity: over 48 fold

## CCN1CCN(Cc2ccc(NC(=O)c3cc(Cl)cc(NC(=O)c4cccnc4)c3)cc2C(F)(F)F)CC1 [Compound 6, N-(3-Chloro-5-((4-((4-ethylpiperazin-1-yl)methyl)-3-(trifluoromethyl)phenyl)carbamoyl)phenyl)nicotinamide]
[2]
  microsomal stability and clearance: metabolized rapidly
P. falciparum Dd2 [1]
  fold loss of antiplasmodial potency: 3 fold

## CCN1CCN(Cc2ccc(NC(=O)c3cc(Cl)cc(NC(=O)c4ccccc4)c3)cc2C(F)(F)F)CC1 [Compound 8, 3-Benzamido-5-chloro-N-(4-((4-ethylpiperazin-1-yl)-methyl)-3-(trifluoromethyl)phenyl)benzamide]
P. falciparum Dd2 [1]
  further decrease in the potency: 4- to 5 fold

## CCN1CCN(Cc2ccc(NC(=O)c3cc(Cl)cc(NC(=O)c4cccc(-c5cccs5)c4)c3)cc2C(F)(F)F)CC1 [Compound 9, 3-Chloro-N-(4-((4-ethylpiperazin-1-yl)methyl)-3-(trifluoromethyl)phenyl)-5-(3-(thiophen-2-yl)benzamido)-benzamide]
P. falciparum Dd2 [1]
  further decrease in the potency: 4- to 5 fold

## CCN1CCN(Cc2ccc(NC(=O)c3cc(Cl)cc(NC(=O)c4cncc(-c5ccc(C#N)cc5)c4)c3)cc2C(F)(F)F)CC1 [Compound 16, N-(3-Chloro-5-((4-((4-ethylpiperazin-1-yl)methyl)-3-(trifluoromethyl)phenyl)carbamoyl)phenyl)-5-(4-cyanophenyl)nicotinamide]
[6]
  ring stage survival: notably higher than that of the DHA-treated cultures
[7]
  survival in piperaquine survival assay: did not survive the 48 h treatment
[8]
  99.9% parasite clearance time (PCT): less than 32 h
  lag phase: no lag phase detected
[10]
  EC50 values: low nanomolar range

## CCN1CCN(Cc2ccc(NC(=O)c3cc(Cl)cc(Nc4cncc(-c5cccs5)c4)c3)cc2C(F)(F)F)CC1 [Compound 17, 3-Chloro-N-(4-((4-ethylpiperazin-1-yl)methyl)-3-(trifluoromethyl)phenyl)-5-((5-(thiophen-2-yl)pyridin-3-yl)-amino)benzamide]
P. falciparum Dd2 [1]
  fold loss of antiplasmodial potency: 6 fold

## CCN1CCN(Cc2ccc(NC(=O)c3cc(Cl)cc(NCc4cncc(-c5cccs5)c4)c3)cc2C(F)(F)F)CC1 [Compound 18, 3-Chloro-N-(4-((4-ethylpiperazin-1-yl)methyl)-3-(trifluoromethyl)phenyl)-5-(((5-(thiophen-2-yl)pyridin-3-yl)-methyl)amino)benzamide]
P. falciparum Dd2 [1]
  fold loss of antiplasmodial potency: 6 fold

## CCN1CCN(Cc2ccc(NC(=O)c3cc(Cl)cc(NC(=O)c4cncc(-c5cccs5)c4)c3)cc2)CC1 [Compound 22, N-(3-Chloro-5-((4-((4-ethylpiperazin-1-yl)methyl)phenyl)-carbamoyl)phenyl)-5-(thiophen-2-yl)nicotinamide]
[2]
  microsomal stability and clearance: suitable microsomal stability and low clearance

## O=C(Nc1ccnc(N2CCOCC2)c1)c1cc(Cl)cc(NC(=O)c2cncc(-c3cccs3)c2)c1 [Compound 23, N-(3-Chloro-5-((2-morpholinopyridin-4-yl)carbamoyl)-phenyl)-5-(thiophen-2-yl)nicotinamide]
P. falciparum Dd2 [1]
  fold loss of antiplasmodial potency: 13 fold

## CCN1CCN(Cc2ccc(NC(=O)c3cc(NC(=O)c4cncc(-c5cccs5)c4)ccc3F)cc2C(F)(F)F)CC1 [Compound 26, N-(3-((4-((4-Ethylpiperazin-1-yl)methyl)-3-(trifluoromethyl)phenyl)carbamoyl)-4-fluorophenyl)-5-(thiophen-2-yl)nicotinamide]
P. falciparum Dd2 [1]; Plasmodium falciparum, DD2, 72 h, read-out: Antiplasmodial Activity Dd2 EC50 (nM), ring stage parasites, 72 h
  EC50: 867 nM

## CCN1CCN(Cc2ccc(NC(=O)c3cncc(NC(=O)c4cncc(-c5cccs5)c4)c3)cc2C(F)(F)F)CC1 [Compound 30, N-(4-((4-Ethylpiperazin-1-yl)methyl)-3-(trifluoromethyl)-phenyl)-5-(5-(thiophen-2-yl)nicotinamido)nicotinamide]
[2]
  microsomal stability and clearance: metabolized rapidly
P. falciparum Dd2 [1]; compound 30 relative to compound 29
  improvement in both potency and selectivity: more than 7 fold

## CCN1CCN(Cc2ccc(NC(=O)c3cc(Br)cc(NC(=O)c4cncc(-c5cccs5)c4)c3)cc2C(F)(F)F)CC1 [Compound 32, N-(3-Bromo-5-((4-((4-ethylpiperazin-1-yl)methyl)-3-(trifluoromethyl)phenyl)carbamoyl)phenyl)-5-(thiophen-2-yl)nicotinamide]
[2]
  microsomal stability and clearance: suitable microsomal stability and low clearance

## CCN1CCN(Cc2ccc(NC(=O)c3cc(NC(=O)c4cncc(-c5cccs5)c4)cc(C(F)(F)F)c3)cc2C(F)(F)F)CC1 [Compound 33, N-(3-((4-((4-Ethylpiperazin-1-yl)methyl)-3-(trifluoromethyl)phenyl)carbamoyl)-5-(trifluoromethyl)-phenyl)-5-(thiophen-2-yl)nicotinamide]
[2]
  microsomal stability and clearance: suitable microsomal stability and low clearance

## CC1(C)c2nc(-c3ccc(F)cc3)c(Nc3ccc(Cl)cc3)n2CCN1C(=O)CN [GNF179]
[12]
  half-life: 8.9 h

## Cc1cn(-c2cc(NC(=O)c3ccc(C)c(Nc4nccc(-c5cccnc5)n4)c3)cc(C(F)(F)F)c2)cn1 [nilotinib]
Ring stage
  EC50: < 1000 nM

Source: paper PMC10950204 (Journal of medicinal chemistry, 2024)
